These results are taken from ChEMBL document CHEMBL4680117, “Discovery of 3,3'-pyrrolidinyl-spirooxindoles as cardioprotectant prohibitin ligands” (Eur J Med Chem, 2020).

Experiment [1] deals with H9c2. As to the kind of experiment: Cardioprotective activity against rat H9c2 cells assessed as inhibition of doxorubicin-induced cytotoxicity by measuring increase in cell suvival at 0.3 nM preincubated for 10 hrs followed by doxorubicin treatment and measured after 14 hrs by cQuant based analysis (reference value: 0%). The experiment is classed as functional. Also noted: scale not given: the % may be the effect or the level left. The note with it: time 24 hrs.

Experiment [2] concerns H9c2. Nature of the experiment: Cardioprotective activity against rat H9c2 cells assessed as inhibition of doxorubicin-induced ROS production at 0.3 nM preincubated for 14 hrs followed by loading with DCFDA dye for 45 mins and later exposed to doxorubicin for 3 hrs by DCF-DA probe based fluorescence assay (reference value: 0%). The experiment is classed as functional. As to conditions: H9c2, 17.75 h, time 1065 min.

In experiment [3] the test system is H9c2. Nature of the experiment: Cardioprotective activity against rat H9c2 cells assessed as inhibition of doxorubicin-induced cytotoxicity by measuring increase in cell suvival at 1 nM preincubated for 10 hrs followed by doxorubicin treatment and measured after 14 hrs by cQuant based analysis (reference value: 0%). The experiment is classed as functional. Also noted: scale not given: the % may be the effect or the level left. The note with it: time 24 hrs.

Experiment [4] concerns H9c2. Nature of the experiment: Cardioprotective activity against rat H9c2 cells assessed as inhibition of doxorubicin-induced ROS production at 1 nM preincubated for 14 hrs followed by loading with DCFDA dye for 45 mins and later exposed to doxorubicin for 3 hrs by DCF-DA probe based fluorescence assay (reference value: 0%). The experiment is classed as functional. As to conditions: H9c2, 17.75 h, time 1065 min.

For the next experiment, the system named is MCF7. As to the kind of experiment: Cytotoxicity against human MCF7 cells. The experiment is classed as functional, cell-based.
Experiment [5] deals with H9c2. Nature of the experiment: Binding affinity to PHB2 in rat H9c2 cells incubated for overnight by AffiGel 10 beads pull down based western blot analysis. The experiment is classed as cell-based.
Experiment [6] has as its system H9c2. Nature of the experiment: Binding affinity to PHB1 in rat H9c2 cells incubated for overnight by AffiGel 10 beads pull down based western blot analysis. The experiment is classed as cell-based. In general terms: In western blotting, separated proteins are transferred to a membrane and probed.
Experiment [7] concerns H9c2. Nature of the experiment: Binding affinity to PHB1/2 in rat H9c2 cells assessed as induction of STAT3 phosphorylation at 10 nM incubated for 10 to 40 mins by western blot analysis. The experiment is classed as cell-based. As to conditions: time 10-40 min.
The test system of experiment [8] is H9c2. Nature of the experiment: Cardioprotective activity against rat H9c2 cells assessed as inhibition of doxorubicin-induced cytotoxicity at 10 to 30 nM preincubated for 10 hrs followed by doxorubicin treatment and measured after 14 hrs by cQuant based analysis. The experiment is classed as functional, cell-based. The note with it: dose 10-30 nM, time 24.0 hrs.

Experiment [9] relates to H9c2. Nature of the experiment: Cardioprotective activity against rat H9c2 cells assessed as inhibition of doxorubicin-induced ROS production at 10 to 30 nM preincubated for 14 hrs followed by loading with DCFDA dye for 45 mins and later exposed to doxorubicin for 3 hrs by DCF-DA probe based fluorescence assay. The experiment is classed as functional, cell-based. As to conditions: dose 10-30 nM, time 1065.0 min.

A word on the inhibition: it is the drop in the measured response relative to a control, in per cent. One may read the pEC50 as −log10 of the EC50, conventionally taken in molar units.

pEC50: −log10 of the molar value. Active and inactive are the calls of the source. The calls are words filed in the database; no cut-off is given here.

As for `O=C1Nc2ccccc2[C@]12CCNC2c1ccccc1` (stereo not given in full), the Activity with H9c2 [1] is 7.7%; with H9c2 [3] it was 11.3%. In the experiment with H9c2 [2], the inhibition at 0.0003 µM turned out to be 12.5%. The inhibition at 0.001 µM in the experiment with H9c2 [4] amounted to 18.8%. In the experiment with MCF7, this compound gave a negative logarithm of the EC50 (pEC50) of 5.46.
As for `COC(=O)[C@H]1C[C@@]2(C(=O)Nc3ccccc32)[C@H](c2ccccc2)N1`, the figures for the Activity in the experiment on H9c2 [1] and with H9c2 [3] were 2.9% and 7.1%, respectively. Also, the inhibition at 0.0003 µM in the experiment with H9c2 [2] amounted to 2.9%. Also, in the experiment with H9c2 [4], the inhibition at 0.001 µM is 2.7%.
Take `O=C(CCC(=O)ON1C(=O)CCC1=O)NCCNC(=O)CNCCOCCOCCOCCN1CCC2(C(=O)Nc3ccccc32)C1c1ccccc1` (stereo not given): the result in the experiment on H9c2 [5] and in the experiment with H9c2 [6] was Active.
In the case of `CN(C)C(=O)CN1CC[C@@]2(C(=O)Nc3ccccc32)[C@@H]1c1ccccc1`, the figures for the Activity with H9c2 [1] and with H9c2 [3] were 1.4% and 0.2%, respectively. Moreover, the inhibition at 0.0003 µM in the experiment with H9c2 [2] came out at 0%. Also, the inhibition at 0.001 µM in the experiment with H9c2 [4] came to 9.4%.
For `CN1CC[C@@]2(C(=O)Nc3ccccc32)[C@@H]1c1ccccc1` the same measures were 5.4%, 7.6%, 9.4% and 15.6%.
The like results for `CCCN1CC[C@@]2(C(=O)Nc3ccccc32)[C@@H]1c1ccccc1` were, in that order, 1.3%, 0.8%, 3.1% and 6.2%.
The like results for `O=C(CN1CC[C@@]2(C(=O)Nc3ccccc32)[C@@H]1c1ccccc1)N1CCOCC1` were, in that order, 0.3%, 0.3%, 0% and 6.2%.
Consider `Cc1ccc2c(c1)NC(=O)C21CCNC1c1ccccc1` (stereo not given), for which the Activity with H9c2 [1] is recorded as 0.3%; in the experiment on H9c2 [3] it was 2.6%. Besides, the inhibition at 0.0003 µM with H9c2 [2] came to 0%. The inhibition at 0.001 µM with H9c2 [4] is 3.2%.
Take `O=C(CCC(=O)ON1C(=O)CCC1=O)NCCNC(=O)CNCCOCCOCCOCCN1C(=O)C2(CCNC2c2ccccc2)c2ccccc21` (stereo not given): the outcome with H9c2 [5] and in the experiment with H9c2 [6] was Active.
`CC(C)N1CC[C@@]2(C(=O)Nc3ccccc32)[C@@H]1c1ccccc1`: the Activity with H9c2 [1] is given as 6.7%; with H9c2 [3] it was 10.7%. Further, the outcome in the experiment with H9c2 [7], in the experiment with H9c2 [8] and in the experiment with H9c2 [9] was Active. Further, in the experiment with H9c2 [2], the inhibition at 0.0003 µM turned out to be 14.3%. Also, the inhibition at 0.001 µM with H9c2 [4] worked out at 20.5%.
Consider `C=CCN1CC[C@@]2(C(=O)Nc3ccccc32)[C@@H]1c1ccccc1`, for which the Activity in the experiment on H9c2 [1] was 4.6%; with H9c2 [3], 11.6%. The inhibition at 0.0003 µM in the experiment with H9c2 [2] was 12.7%. Further, the outcome in the experiment on H9c2 [8] and in the experiment on H9c2 [9] was Active. Further, the inhibition at 0.001 µM in the experiment with H9c2 [4] is 20.6%.
As for `COC(=O)[C@H]1C[C@]2(C(=O)Nc3ccccc32)[C@@H](c2ccccc2)N1`, the values for the Activity in the experiment with H9c2 [1] and with H9c2 [3] were 4% and 6.4%, respectively. The inhibition at 0.0003 µM in the experiment on H9c2 [2] came to 3.1%. For the same compound, the inhibition at 0.001 µM with H9c2 [4] is 9.4%.
Consider `O=C1N[C@@H](c2ccccc2)[C@]2(C(=O)Nc3ccccc32)[C@H]1O`, for which the Activity in the experiment on H9c2 [1] is listed as 3%; in the experiment on H9c2 [3], 5.8%. Besides, the inhibition at 0.0003 µM with H9c2 [2] is 6.25%. The inhibition at 0.001 µM in the experiment with H9c2 [4] was found to be 21.9%.
In the case of `CCN1CC[C@@]2(C(=O)Nc3ccccc32)[C@@H]1c1ccccc1`, the results for the Activity in the experiment with H9c2 [1] and in the experiment on H9c2 [3] were 6% and 7.4%, respectively. Moreover, the inhibition at 0.0003 µM in the experiment with H9c2 [2] stood at 9.4%. Also, in the experiment with H9c2 [4], the inhibition at 0.001 µM is 12.5%.
Consider `CN1C(=O)[C@@]2(c3ccccc31)[C@H](c1ccccc1)N(C)C(=O)[C@@H]2O`, for which the Activity amounted to 1.9% in the experiment on H9c2 [1] and 2.9% in the experiment on H9c2 [3]. The inhibition at 0.0003 µM with H9c2 [2] was 3.2%. Moreover, the inhibition at 0.001 µM in the experiment on H9c2 [4] came to 2.1%.
As for `COc1cc(OC)c2c(c1)O[C@@]1(c3ccc(Br)cc3)[C@H](c3ccccc3)C[C@@H](O)[C@@]21O`, the Activity turned out to be 3.5% with H9c2 [1] and 9.7% with H9c2 [3]. Moreover, the inhibition at 0.0003 µM with H9c2 [2] turned out to be 9.5%. In addition, the result with H9c2 [8] and with H9c2 [9] was Active. Further, in the experiment on H9c2 [4], the inhibition at 0.001 µM worked out at 15.9%.
Turning to `CCCCN1CC[C@@]2(C(=O)Nc3ccccc32)[C@@H]1c1ccccc1`, the Activity in the experiment on H9c2 [1] is reported as 0.9%; in the experiment on H9c2 [3] it was 5.7%. Also, in the experiment with H9c2 [2], the inhibition at 0.0003 µM came to 6.2%. The inhibition at 0.001 µM in the experiment on H9c2 [4] amounted to 12.5%.
As for `O=C1Nc2ccccc2[C@]12CCN(C1CCCC1)[C@H]2c1ccccc1`, the results for the Activity in the experiment with H9c2 [1] and in the experiment on H9c2 [3] were 2.6% and 0.2%, respectively. Also, in the experiment with H9c2 [2], the inhibition at 0.0003 µM is 0%. For the same compound, the inhibition at 0.001 µM with H9c2 [4] came to 12.5%.
With `O=C1Nc2cc(Br)ccc2C12CCNC2c1ccccc1` (stereo not given), the Activity in the experiment with H9c2 [1] turned out to be 1.1%; in the experiment on H9c2 [3], 6.5%. Moreover, the inhibition at 0.0003 µM in the experiment with H9c2 [2] was found to be 3.2%. Also, the inhibition at 0.001 µM with H9c2 [4] was determined as 6.5%.
